Measurements as given in patent US8426447B2, “Spiro-tricyclic ring compounds as beta-secretase modulators and methods of use” (Amgen Inc., priority 2008, dated 2013).

Experiments:
BACE1 [1] = target: T1, BACE1 (Homo sapiens, UniProt P56817); assay: In Vitro Enzymatic BACE FRET (Fluorescence Resonance Energy Transfer) Assay; assay type: biochemical; settings: read-out: BACE1 FRET assay
Procedure, shortened: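 Run in 0.05 M acetate pH 4.2 with 10% DMSO final and 100 uM genapol detergent below its CMC. Reaction was started with 50 nM FRET peptide substrate (fluorophore and quencher flanking the BACE cleavage site), incubated one hour, stopped with Tris to neutral pH, and fluorescence read.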

BACE1 [2] = target: T1, BACE1; assay: In Vitro BACE Cell-based Assay (HEK cell assay): Aβ40 in conditioned medium of cells stably expressing Amyloid Precursor Protein, sandwich ELISA; settings: read-out: HEK cell assay
Procedure, shortened: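 First, APP-stable cells grow 24 h at 37° C., 5% CO2. Next, test compounds are added for 24 h (10 doses, 0.1% DMSO). Finally, medium Aβ40 is determined by pAb40/6E10 sandwich ELISA with Europium TRF, and IC50 is calculated.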

[3] = in vitro BACE FRET enzyme assay, IC50 class symbols
[4] = HEK cell-based assay, Aβ40 in conditioned medium, IC50 class symbols
[5] = Table II, Aβ40, 24 h incubation

T1 sequence (P56817 46-501, species assumed): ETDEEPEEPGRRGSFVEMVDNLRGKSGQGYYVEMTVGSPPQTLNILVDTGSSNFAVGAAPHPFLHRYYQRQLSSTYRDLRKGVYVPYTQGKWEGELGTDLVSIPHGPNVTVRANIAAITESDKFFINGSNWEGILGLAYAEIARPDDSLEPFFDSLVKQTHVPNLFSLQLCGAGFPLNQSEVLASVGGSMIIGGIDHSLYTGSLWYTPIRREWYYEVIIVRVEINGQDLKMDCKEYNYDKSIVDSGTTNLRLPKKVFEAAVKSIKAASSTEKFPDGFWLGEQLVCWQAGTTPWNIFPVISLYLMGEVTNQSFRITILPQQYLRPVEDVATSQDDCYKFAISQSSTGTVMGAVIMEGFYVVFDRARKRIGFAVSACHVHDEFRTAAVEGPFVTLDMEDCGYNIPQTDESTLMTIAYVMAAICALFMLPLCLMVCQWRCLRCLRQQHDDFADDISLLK

Row | SMILES | IC50 (BACE1 [1]; Table IV, class symbols) [µM] | IC50 (BACE1 [2]; Table IV, class symbols) [µM] | IC50 (BACE1 [1]) [µM] | further results
1 | CC(C)(C)COc1ccc2c(c1)[C@]1(COC(N)=N1)c1cc(-c3cccc4ncccc34)ccc1O2 [compound 916] | 0.1 to 1 | 1 to 5 |  | 
2 | NC1=N[C@]2(CO1)c1cc(-c3ccc(OC(F)(F)F)cc3)ccc1Oc1ccc(-c3cncnc3)cc12 [compound 840] | < 0.1 | 0.1 to 1 |  | 
3 | NC1=N[C@]2(CO1)c1cc(C3=CCOCC3)ccc1Oc1cnc(Cl)cc12 [compound 499] |  |  | 1 to 5 | IC50 (BACE1 [2]; HEK cells): > 5 µM
4 | NC1=N[C@]2(CO1)c1cc(C3=CCOCC3)ccc1Oc1cnc(-c3ccccc3F)cc12 [compound 498] |  |  | < 0.1 | IC50 (BACE1 [2]; HEK cells): 0.1 to 1 µM
5 | CC(C)(C)COc1ccc2c(c1)[C@]1(COC(N)=N1)c1cc(C(=O)N3CCCCC3)ccc1O2 [compound 873] | 0.1 to 1 | 0.1 to 1 |  | 
6 | COc1cc(-c2cc3c(cn2)Oc2ccc(-c4cccnc4F)cc2[C@@]32COC(N)=N2)ccn1 [compound 430] |  |  | < 0.1 | IC50 (BACE1 [2]; HEK cells): 0.1 to 1 µM
7 | NC1=N[C@@]2(CO1)c1cc(-c3cc(Cl)ccc3F)ccc1Oc1cnc(-c3cccnc3)cc12 [compound 367] |  |  |  | IC50 (BACE1 [1]; [3]): < 0.1 µM; IC50 (BACE1 [2]; [4]): < 0.1 µM
8 | CCCOc1cc2c(cc1F)Oc1ccc(-c3ccc(F)nc3)cc1[C@]21COC(N)=N1 [compound 921] | 0.1 to 1 | 1 to 5 |  | 
9 | Cc1ccncc1-c1ccc2c(c1)[C@@]1(COC(N)=N1)c1cc(OCC(C)(C)C)ccc1O2 [Example 86, (4S)-2′-(2,2-dimethylpropoxy)-7′-(4-methyl-3-pyridinyl)spiro[1,3-oxazole-4,9′-xanthen]-2-amine] |  |  |  | IC50 (BACE1 [1]; Table II): < 0.1 µM; IC50 (BACE1 [2]; [5]): 0.1 to 1 µM
10 | COc1ccc2c(c1)[C@]1(COC(N)=N1)c1cc(C3=CCOCC3)cc(F)c1O2 [compound 363] |  |  |  | IC50 (BACE1 [1]; [3]): > 5 µM; IC50 (BACE1 [2]; [4]): > 5 µM
11 | COc1ccc(-c2ccc3c(c2)[C@@]2(COC(N)=N2)c2cc(OCC(C)(C)C)ccc2O3)cn1 [Example 87, (4S)-2′-(2,2-dimethylpropoxy)-7′-(6-methoxy-3-pyridinyl)spiro[1,3-oxazole-4,9′-xanthen]-2-amine] |  |  |  | IC50 (BACE1 [1]; Table II): 0.1 to 1 µM; IC50 (BACE1 [2]; [5]): 1 to 5 µM
12 | CON(C)C(=O)COc1ccc2c(c1)[C@]1(COC(N)=N1)c1cc(-c3cccnc3)ccc1O2 [compound 788] |  |  | 1 to 5 | IC50 (BACE1 [2]): 1 to 5 µM
13 | NC1=N[C@@]2(CO1)c1cc(-c3ccccc3)ccc1Oc1ncc(C3=CCOCC3)cc12 [compound 580] | < 0.1 | < 0.1 |  | 
14 | CC(C)(C)C[C@H](F)c1ccc2c(c1)[C@]1(COC(N)=N1)c1cc(-c3cncnc3)ccc1O2 [116a, (4S)-2′-((1S)-1-fluoro-3,3-dimethylbutyl)-7′-(5-pyrimidinyl)spiro[1,3-oxazole-4,9′-xanthen]-2-amine] |  |  |  | IC50 (BACE1 [1]; Table III, IC50's in uM ranges): < 0.1 µM; IC50 (BACE1 [2]; Table III, IC50's in uM ranges): 0.1 to 1 µM
15 | COC(C)(C)CCc1ccc2c(c1)C1(COC(N)=N1)c1cc(-c3cccnc3)cnc1O2 (racemic) [Example 110, rac-7-(3-methoxy-3-methylbutyl)-3-(3-pyridinyl)spiro[chromeno[2,3-b]pyridine-5,4′-[1,3]oxazol]-2′-amine] |  |  |  | IC50 (BACE1 [1]; Table III, IC50's in uM ranges): < 0.1 µM; IC50 (BACE1 [2]; Table III, IC50's in uM ranges): 0.1 to 1 µM
16 | Cc1cncc(-c2ccc3c(c2)[C@@]2(COC(N)=N2)c2cc(N4CCOCC4)ncc2O3)c1 [compound 325] |  |  |  | IC50 (BACE1 [1]; [3]): < 0.1 µM; IC50 (BACE1 [2]; [4]): < 0.1 µM
17 | NC1=NC2(CO1)c1cc(C3CC3)ccc1Oc1ccc(C3CC3)cc12 [compound 760] |  |  | 1 to 5 | IC50 (BACE1 [2]): 1 to 5 µM

The next lines start with results.

Row | IC50 (BACE1 [1]; Table IV, class symbols) [µM] | IC50 (BACE1 [2]; Table IV, class symbols) [µM] | IC50 (BACE1 [1]) [µM] | SMILES | further results
18 | < 0.1 | 0.1 to 1 |  | NC1=N[C@@]2(CO1)c1cc(-c3cccnc3)ccc1Oc1ccc(N3CCCC3=O)cc12 [compound 863] | 
19 |  |  | < 0.1 | NC1=N[C@@]2(CO1)c1cc(-c3cc(C4=CCOCC4)ccc3F)ccc1Oc1cnc(C3=CCOCC3)cc12 [compound 423] | IC50 (BACE1 [2]; HEK cells): 0.1 to 1 µM
20 |  |  | 0.1 to 1 | NC1=N[C@]2(CO1)c1cc(OC3COC3)ccc1Oc1ccc(-c3cccnc3)cc12 [compound 777] | IC50 (BACE1 [2]): 0.1 to 1 µM
21 |  |  | < 0.1 | NC1=N[C@@]2(CO1)c1cc(-c3cccnc3)ccc1Oc1ccc(N3CCOC4(CC4)C3)cc12 [compound 419] | IC50 (BACE1 [2]; HEK cells): < 0.1 µM
22 | < 0.1 | 0.1 to 1 |  | CC(C)Oc1ccc(-c2cc3c(cn2)Oc2ccc(-c4cccnc4)cc2[C@@]32COC(N)=N2)cc1 [compound 851] | 
